Active and inactive are the calls of the source.
Columns and labels:
[1] = molecular target: T1, Polyadenylate-binding protein 1 (Homo sapiens, UniProt P11940); experiment: MLLE binding blockers, Cy5 peptide tracer – biochemical, fluorescence polarization, Cy5-PAM2 peptide, secondary, miRNA deadenylation inhibitor project, dose response (AID 602260); type: functional; details: read-out: IC50_Mean
[2] = molecular target: T1, Polyadenylate-binding protein 1; experiment: MLLE domain peptide-binding blockers, IC50 – biochemical, fluorescence polarization, FITC-PAM2 peptide, dose response (AID 602259); type: functional; details: read-out: IC50_Mean
[3] = blockers of HIV-1 envelope-mediated cell-cell fusion – cherry-pick, dose response (AID 652057); type: functional, cell-based
[4] = blockers of HIV-1 ZM109 envelope-driven cell-cell fusion – HeLa effector, CEM target cells, luciferase, cherry-pick, dose response (AID 652058); type: functional, cell-based;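 also: luciferase signal from HIV-1 Env mediated cell-cell fusion of effector and target cells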
[5] = off-target signal loss in HeLa-CEM21 co-culture – HeLa F-luc CTL cells, cherry-picked, counter-screen for HIV-1 Env fusion inhibitor project, dose response (AID 652040); type: functional, cell-based;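 also: potency for signal decrease marking cytotoxic or nonspecific inhibition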
[6] = HIV-1 AD8 envelope cell-cell fusion blockers – cherry-pick, dose response (AID 652062); type: functional, cell-based;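 also: luciferase signal from cell-cell fusion driven by HIV-1 clade B AD8 Env; potency is for inhibitors of fusion seen as a drop in luminescence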
[7] = molecular target: T2, Ubiquitin-conjugating enzyme E2 N (Homo sapiens, UniProt P61088); type: functional;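 also: Dose-response confirmation in a TR-FRET assay detecting UBC13-driven polyubiquitin chain formation, inhibition measured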
T2 sequence (P61088 whole entry): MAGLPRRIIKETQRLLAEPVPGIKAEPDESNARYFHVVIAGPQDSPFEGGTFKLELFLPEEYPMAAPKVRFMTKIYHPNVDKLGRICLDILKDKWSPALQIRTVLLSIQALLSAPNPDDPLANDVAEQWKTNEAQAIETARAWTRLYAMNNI

Streptokinase A = molecular target: T3, Streptokinase A (Streptococcus pyogenes serotype M1, UniProt P10520); experiment: viability-normalized secreted streptokinase activity reduction – plasminogen activation absorbance, OD405, dose response (AID 1914); type: functional, Streptococcus pyogenes M1 GAS;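 also: secreted streptokinase activity via plasminogen activation per viability signal from cell pellet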
T3 sequence (P10520 whole entry): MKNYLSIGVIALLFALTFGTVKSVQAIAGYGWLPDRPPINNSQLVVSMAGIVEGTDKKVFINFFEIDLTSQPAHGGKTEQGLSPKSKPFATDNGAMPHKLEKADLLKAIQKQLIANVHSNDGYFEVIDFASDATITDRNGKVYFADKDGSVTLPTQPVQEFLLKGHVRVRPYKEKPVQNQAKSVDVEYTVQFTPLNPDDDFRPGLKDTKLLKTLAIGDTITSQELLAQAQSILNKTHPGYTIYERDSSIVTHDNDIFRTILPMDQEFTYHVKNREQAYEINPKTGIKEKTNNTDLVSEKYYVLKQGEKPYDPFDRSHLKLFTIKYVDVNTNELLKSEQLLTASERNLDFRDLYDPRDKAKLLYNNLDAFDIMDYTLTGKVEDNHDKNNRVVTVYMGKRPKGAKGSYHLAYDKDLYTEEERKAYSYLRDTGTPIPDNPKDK

Large T antigen = Large T antigen (Simian virus 40, UniProt P03070); type: functional, Betapolyomavirus macacae;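 also: Confirmatory-stage PubChem screen for compounds that inhibit SV40 T antigen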
Large T antigen, sequence (P03070 whole entry): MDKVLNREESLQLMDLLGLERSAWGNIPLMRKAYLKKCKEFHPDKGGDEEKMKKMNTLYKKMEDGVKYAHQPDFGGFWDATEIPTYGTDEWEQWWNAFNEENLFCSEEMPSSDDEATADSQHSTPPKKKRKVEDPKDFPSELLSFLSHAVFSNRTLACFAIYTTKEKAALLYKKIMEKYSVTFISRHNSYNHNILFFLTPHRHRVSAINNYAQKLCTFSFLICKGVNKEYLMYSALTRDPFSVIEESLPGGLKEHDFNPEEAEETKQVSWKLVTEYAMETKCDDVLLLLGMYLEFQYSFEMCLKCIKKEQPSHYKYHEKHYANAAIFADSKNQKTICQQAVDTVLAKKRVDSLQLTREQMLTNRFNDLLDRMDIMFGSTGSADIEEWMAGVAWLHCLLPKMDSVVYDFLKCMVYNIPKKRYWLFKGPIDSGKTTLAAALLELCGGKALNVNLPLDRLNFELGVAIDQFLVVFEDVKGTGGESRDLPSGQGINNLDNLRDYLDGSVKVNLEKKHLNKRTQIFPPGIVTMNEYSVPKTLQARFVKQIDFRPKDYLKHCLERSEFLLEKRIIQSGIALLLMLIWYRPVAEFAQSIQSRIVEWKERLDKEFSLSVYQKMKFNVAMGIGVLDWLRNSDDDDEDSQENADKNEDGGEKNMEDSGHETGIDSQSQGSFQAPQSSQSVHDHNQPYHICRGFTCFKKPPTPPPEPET

[8] = molecular target: T4, Corticotropin-releasing factor receptor 2/Corticotropin-releasing factor-binding protein (Homo sapiens, UniProt P24387+Q13324); experiment: Dose Response confirmation of uHTS hits for small molecule antagonists of the CRF-binding protein and CRF-R2 receptor complex.; type: functional; details: read-out: IC50_Mean
T4 sequence (Q13324 whole entry): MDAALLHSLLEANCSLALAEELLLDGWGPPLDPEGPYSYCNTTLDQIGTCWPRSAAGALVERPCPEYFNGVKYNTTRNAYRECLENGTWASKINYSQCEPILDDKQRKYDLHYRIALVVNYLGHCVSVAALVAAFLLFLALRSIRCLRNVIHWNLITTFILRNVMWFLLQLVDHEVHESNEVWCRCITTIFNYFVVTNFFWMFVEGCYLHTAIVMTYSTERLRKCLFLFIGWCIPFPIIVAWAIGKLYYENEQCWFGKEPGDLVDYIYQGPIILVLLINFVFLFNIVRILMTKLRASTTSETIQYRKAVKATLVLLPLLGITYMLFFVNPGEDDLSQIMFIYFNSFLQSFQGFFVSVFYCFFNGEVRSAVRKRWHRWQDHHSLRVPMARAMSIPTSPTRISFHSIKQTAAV
T4 sequence (P24387 whole entry): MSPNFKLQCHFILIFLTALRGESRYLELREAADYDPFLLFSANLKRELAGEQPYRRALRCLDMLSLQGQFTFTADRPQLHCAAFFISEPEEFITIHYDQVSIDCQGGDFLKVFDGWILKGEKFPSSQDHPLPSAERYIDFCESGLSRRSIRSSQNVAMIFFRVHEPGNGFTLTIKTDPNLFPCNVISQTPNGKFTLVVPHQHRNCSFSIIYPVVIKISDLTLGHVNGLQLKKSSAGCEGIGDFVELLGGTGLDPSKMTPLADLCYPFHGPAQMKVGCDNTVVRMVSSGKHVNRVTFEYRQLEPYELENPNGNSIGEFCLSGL

[9] = molecular target: T4, Corticotropin-releasing factor receptor 2/Corticotropin-releasing factor-binding protein; experiment: activators of CRF receptor 2 with binding protein – uHTS hits, confirmation (AID 602473); type: functional; details: read-out: EC50_Mean
INS1 = experiment: INS-1E survival protection against cytokine death – cell-based, luminescence, retest, dose response (AID 449756); type: functional; details: Rattus norvegicus;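 also: cell death triggered by IL-1 beta plus TNF-alpha plus IFN-gamma mixture; protective hits raise ATP signal compared with cytokine alone wells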
[10] = molecular target: T5, Rac GTPase-activating protein 1 (Homo sapiens, UniProt Q9H0H5); experiment: blockers of MgcRacGAP-driven Rac1 GTP hydrolysis – biochemical, ADP Hunter fluorescence, primary and confirmatory, confirmation (AID 624330); type: functional
T5 sequence (Q9H0H5 whole entry): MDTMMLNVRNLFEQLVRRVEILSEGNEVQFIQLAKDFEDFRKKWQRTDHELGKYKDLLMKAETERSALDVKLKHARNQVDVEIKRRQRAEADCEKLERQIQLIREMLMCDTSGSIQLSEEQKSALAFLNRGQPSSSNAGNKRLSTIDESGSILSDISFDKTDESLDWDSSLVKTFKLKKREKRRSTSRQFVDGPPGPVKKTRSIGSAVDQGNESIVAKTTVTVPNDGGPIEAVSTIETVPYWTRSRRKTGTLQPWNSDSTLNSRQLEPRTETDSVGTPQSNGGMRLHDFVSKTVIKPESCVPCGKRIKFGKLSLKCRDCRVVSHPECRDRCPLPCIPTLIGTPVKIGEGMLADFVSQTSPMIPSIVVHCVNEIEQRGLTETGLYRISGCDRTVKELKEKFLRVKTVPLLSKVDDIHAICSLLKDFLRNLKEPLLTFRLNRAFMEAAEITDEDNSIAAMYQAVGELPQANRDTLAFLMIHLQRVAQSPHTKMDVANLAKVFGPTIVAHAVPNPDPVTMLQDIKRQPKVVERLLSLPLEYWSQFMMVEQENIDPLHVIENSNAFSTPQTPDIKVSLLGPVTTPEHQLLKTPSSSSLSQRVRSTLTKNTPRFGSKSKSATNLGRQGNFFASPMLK

[11] = luciferase reporter signal suppression in cells – H4 neuroglioma cells, luminescence, dose response (AID 1990); type: functional, cell-based
[12] = Luminescence Cell-Based Dose Response HTS to Identify Inhibitors of 5'UTR Stem-Loop Driven Prion Protein mRNA Translation in H4 Neuroglioblastoma Cells. [Related pubchem assays: 1827 (Project Summary), 1813 (Primary HTS)]; type: functional
[13] = alpha-synuclein stem-loop luciferase translation blockers – H4 neuroglioma cells, luminescence, confirmation (AID 1988); type: functional, cell-based
[14] = Luminescence Cell-Based Dose Retest to Confirm Inhibitors of Cancer Stem Cells. [Related pubchem assays (depositor defined):AID2717, AID2721]; type: functional; details: Homo sapiens
[15] = molecular target: T6, Heat shock factor protein 1 (Mus musculus, UniProt P38532); experiment: decrease of HSF1-responsive luciferase luminescence – cell-based, NIH3T3, dose retest, confirmation (AID 2382); type: functional;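 also: NIH3T3 fibroblasts with HSF1-driven luciferase reporter stressed by proteasome inhibitor MG132; luminescence from HSF1-driven luciferase expression after 8 hours of MG132 stress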
T6 sequence (P38532 whole entry): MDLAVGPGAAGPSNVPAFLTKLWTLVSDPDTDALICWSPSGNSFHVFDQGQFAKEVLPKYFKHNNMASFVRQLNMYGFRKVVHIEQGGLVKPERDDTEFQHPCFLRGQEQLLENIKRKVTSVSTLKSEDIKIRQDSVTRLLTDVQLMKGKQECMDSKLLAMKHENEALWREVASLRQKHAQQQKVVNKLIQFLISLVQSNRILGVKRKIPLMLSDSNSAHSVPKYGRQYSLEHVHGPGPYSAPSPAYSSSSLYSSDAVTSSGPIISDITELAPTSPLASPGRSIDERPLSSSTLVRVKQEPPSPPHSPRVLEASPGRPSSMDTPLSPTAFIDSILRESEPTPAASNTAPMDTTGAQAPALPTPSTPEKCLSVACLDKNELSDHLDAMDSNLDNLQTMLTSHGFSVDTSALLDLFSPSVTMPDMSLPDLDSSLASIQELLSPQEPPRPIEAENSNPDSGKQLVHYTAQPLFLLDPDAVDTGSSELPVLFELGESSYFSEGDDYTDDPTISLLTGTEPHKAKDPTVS

T1 sequence (P11940 whole entry, the tested form may be a part): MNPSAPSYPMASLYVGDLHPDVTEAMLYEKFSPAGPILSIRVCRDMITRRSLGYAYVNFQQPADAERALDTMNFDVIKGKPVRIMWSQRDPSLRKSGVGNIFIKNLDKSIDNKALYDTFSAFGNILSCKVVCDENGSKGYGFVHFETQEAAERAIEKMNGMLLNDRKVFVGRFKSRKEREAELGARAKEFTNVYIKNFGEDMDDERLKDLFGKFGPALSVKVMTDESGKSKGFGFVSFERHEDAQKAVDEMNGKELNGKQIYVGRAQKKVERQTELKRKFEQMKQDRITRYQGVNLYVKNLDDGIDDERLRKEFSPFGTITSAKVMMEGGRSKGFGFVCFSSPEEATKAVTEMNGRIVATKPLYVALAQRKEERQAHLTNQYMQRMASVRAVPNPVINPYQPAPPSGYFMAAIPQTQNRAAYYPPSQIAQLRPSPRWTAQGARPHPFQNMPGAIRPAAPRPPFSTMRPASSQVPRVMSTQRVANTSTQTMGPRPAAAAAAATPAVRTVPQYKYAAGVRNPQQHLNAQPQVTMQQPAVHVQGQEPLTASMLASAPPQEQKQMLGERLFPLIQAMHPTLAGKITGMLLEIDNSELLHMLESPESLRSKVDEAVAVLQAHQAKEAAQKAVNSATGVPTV

CS(=O)(=O)N1CCN(C(=O)C(Sc2ccccc2)c2ccccc2)CC1 (stereo not given)
IC50 [1]: > 66 µM (inactive)
IC50 [2]: > 66 µM (inactive)

Cc1ccc(S(=O)(=O)N2CCCCC2)cc1C(=O)NCCC1=CCCCC1
AC50 [3]: 3.71 µM (active)
AC50 [4]: 5.36 µM (active)
AC50 [5]: 7.03 µM (active)
AC50 [6]: 17.1 µM (active)

OCCN1CCN(CC/C=C2/c3ccccc3Sc3ccc(Cl)cc32)CC1
IC50 [7]: > 20 µM (inactive)

CC(=O)c1ccc(NC(=S)Nc2ccc(Br)c(Cl)c2)cc1
EC50 (Streptokinase A): > 150 µM (not active)
IC50 [1]: > 66 µM (inactive)
IC50 [2]: > 66 µM (inactive)

CN1C(=O)/C(=C2/C=CC=CN2C)OC1=S
IC50 [1]: > 66 µM (inactive)
IC50 [2]: > 66 µM (inactive)

Cc1cc(Cl)ccc1OCC(=O)NNC(=O)C1CSC2(C)CCC(=O)N12 (stereo not given)
AC50 [5]: 39.8 µM (active)

ClCC1=Nc2cccc3cccc(c23)N1
IC50 (Large T antigen): 10 µM (active)

CCc1ccc(-c2cn3nc(C)c(C)nc3n2)cc1
AC50 [3]: 3.94 µM (active)
AC50 [4]: 29.3 µM (active)
AC50 [5]: 11 µM (active)
AC50 [6]: 6.35 µM (active)

Cc1ccc(CC(=O)NCCCc2ccccc2)cc1
IC50 [8]: > 47.1 µM (inactive)
EC50 [9]: > 53 µM (inactive)

COc1ccnc2c1c(=O)n(Cc1cccc(F)c1)c(=O)n2C
IC50 [7]: > 20 µM (inactive)

CCCOc1ccc2ccccc2c1/C=N/n1cnnc1
AC50 [3]: 24.8 µM (active)
AC50 [4]: 4.27 µM (active)
AC50 [5]: 25.6 µM (active)
AC50 [6]: 18.5 µM (active)

COc1ccc(CN2C(=O)NC(=O)/C(=C/c3ccoc3)C2=O)cc1
IC50 (Large T antigen): 36.9 µM (active)

CCC(=O)NC(c1cccs1)c1cc(Cl)c2ccccc2c1O (stereo not given)
IC50 [7]: > 20 µM (inactive)

COc1cc(C(c2c(C)n[nH]c2O)c2c(C)n[nH]c2O)ccc1OC(=O)c1cccc([N+](=O)[O-])c1
IC50 (Large T antigen): > 100 µM (active)

CC1=C(C(=O)N(C(C)C)C(C)C)CC(CC(=O)NC2CCCCC2)C(=O)N1Cc1ccccc1 (stereo not given)
IC50 [8]: > 47.1 µM (inactive)
EC50 [9]: > 53 µM (inactive)

CCc1ccc(S(=O)(=O)N=C(S)NC2CCCCC2)cc1
IC50 [1]: > 66 µM (inactive)
IC50 [2]: > 66 µM (inactive)

O=C(CSc1nnc(C2COc3ccccc3O2)o1)N1CCCC1 (stereo not given)
IC50 [1]: > 66 µM (inactive)
IC50 [2]: > 66 µM (inactive)

COc1ccc(O)c(/C=N/NC(=O)c2cccc(N3CCCC3=O)c2)c1
AC50 (INS1): 3.55 µM (active)

O=C1CC2CS(=O)(=O)CC2N1c1ccc(Oc2ccccc2)cc1 (stereo not given)
IC50 [8]: > 47.1 µM (inactive)
EC50 [9]: > 53 µM (inactive)

Oc1c(Br)cc(-c2ccccc2)cc1Br
IC50 [8]: 10.1 µM (active)
EC50 [9]: > 53 µM (inactive)
IC50 [10]: 85 µM (active)

CCCCCc1cc(=O)oc2c(C(CCN3CCCC(C)C3)c3cc(OC)c(OC)c(OC)c3)c(OC)cc(OC)c12 (stereo not given)
EC50 [11]: > 120 µM (not active)
EC50 [12]: > 120 µM (not active)
EC50 [13]: > 120 µM (not active)
AC50 [14]: 6.25 µM (active)
AC50 (INS1): 8.07 µM (active)

COc1ccc2[nH]c3c(=O)n(CCCCC(=O)N4CCC(C(N)=O)CC4)c(=S)[nH]c3c2c1
IC50 [1]: > 66 µM (inactive)
IC50 [2]: > 66 µM (inactive)
IC50 [10]: 55.4 µM (active)

CC(Nc1ccc([N+](=O)[O-])cc1[N+](=O)[O-])c1ccccc1 (stereo not given)
IC50 [8]: 34.7 µM (active)
EC50 [9]: > 53 µM (inactive)

Fc1ccc(CN(Cc2ccccc2)C(c2cccs2)c2nnnn2C2CCCCC2)cc1 (stereo not given)
AC50 (INS1): 6.47 µM (active)

C[C@H](CO)N1C[C@H](C)[C@H](CN(C)C(=O)Cc2ccccc2)OCc2ccccc2-c2c(n(C)c3ccccc23)C1=O
AC50 [3]: < 0.26 µM (active)
AC50 [4]: < 0.26 µM (active)
AC50 [6]: < 0.26 µM (active)

COc1cc(/C=N/n2cnnc2)ccc1OC(=O)c1ccncc1
IC50 (Large T antigen): 75 µM (active)
IC50 [10]: 31 µM (active)

CC(=O)c1c(C)oc2ccc(N(C(C)=O)S(=O)(=O)c3cccc4cccnc34)cc12
AC50 (INS1): 3.85 µM (active)

O=C(NCc1ccccc1)c1ccc(Cl)cc1
IC50 [8]: > 47.1 µM (inactive)
EC50 [9]: > 53 µM (inactive)

O=C(NC(=S)Nc1ccc(O)cc1)c1cncc(Br)c1
IC50 (Large T antigen): 6.41 µM (active)

Cc1cc(C(=O)NNC(=O)C(CCC(N)=O)NS(=O)(=O)c2ccc(Cl)cc2)c(C)o1 (stereo not given)
IC50 [8]: > 47.1 µM (inactive)
EC50 [9]: > 53 µM (inactive)

O=C(CSc1c[nH]nn1)Nc1ccc(O)c(C(=O)O)c1
EC50 [15]: > 195 µM (not active)
IC50 [1]: > 66 µM (inactive)
IC50 [2]: > 66 µM (inactive)

— ChEMBL document CHEMBL1201862, “PubChem BioAssay data set” (2004)
